Activity calls are given as the source filed them. The rule behind the calls is not given here.
Columns and labels:
[1] = target: T1, Alpha-glucosidase (Oryza sativa Japonica Group) (UniProt Q9LGC6); test: Percentage inhibition of Alpha-glucosidase from Rice (maltase) at 1 mM; […]
T1 sequence (whole entry): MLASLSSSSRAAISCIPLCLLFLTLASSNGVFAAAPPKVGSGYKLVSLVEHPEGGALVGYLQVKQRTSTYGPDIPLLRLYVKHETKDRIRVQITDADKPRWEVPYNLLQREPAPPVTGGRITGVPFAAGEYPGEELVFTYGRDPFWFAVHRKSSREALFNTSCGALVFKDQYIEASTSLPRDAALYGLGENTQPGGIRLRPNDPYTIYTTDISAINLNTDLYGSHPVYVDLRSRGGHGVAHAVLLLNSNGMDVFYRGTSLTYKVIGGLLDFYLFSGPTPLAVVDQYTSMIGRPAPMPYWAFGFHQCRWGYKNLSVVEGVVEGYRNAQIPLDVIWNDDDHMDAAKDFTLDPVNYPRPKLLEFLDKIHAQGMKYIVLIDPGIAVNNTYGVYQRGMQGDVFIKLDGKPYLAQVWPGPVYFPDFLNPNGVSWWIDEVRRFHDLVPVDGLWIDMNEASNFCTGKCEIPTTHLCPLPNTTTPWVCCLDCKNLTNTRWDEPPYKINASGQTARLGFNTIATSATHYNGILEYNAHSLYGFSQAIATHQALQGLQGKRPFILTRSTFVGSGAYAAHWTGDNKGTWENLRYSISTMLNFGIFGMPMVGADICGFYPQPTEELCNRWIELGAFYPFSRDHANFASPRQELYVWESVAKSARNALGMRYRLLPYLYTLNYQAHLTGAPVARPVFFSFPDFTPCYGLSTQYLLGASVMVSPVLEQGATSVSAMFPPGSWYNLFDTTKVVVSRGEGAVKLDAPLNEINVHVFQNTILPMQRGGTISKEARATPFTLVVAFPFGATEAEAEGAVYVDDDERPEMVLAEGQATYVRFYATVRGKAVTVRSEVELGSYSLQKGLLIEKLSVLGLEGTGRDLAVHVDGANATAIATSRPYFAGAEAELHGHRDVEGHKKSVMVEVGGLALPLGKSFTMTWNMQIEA

[2] = test system: Saccharomyces cerevisiae; test: Percentage inhibition of Alpha-glucosidase from Baker yeast (isomaltase) at 1 mM; No inhibition
[3] = test system: Saccharomyces cerevisiae; test: Percentage inhibition of Alpha-glucosidase from Yeast (maltase) at 1 mM; […]
[4] = target: Glucoamylase (Aspergillus niger) (UniProt P69328); test: Percentage inhibition of Alpha-glucosidase from Aspergillus niger (amyloglucosidase) at 1 mM; No inhibition
[5] = target: Beta-glucosidase A (Caldicellulosiruptor saccharolyticus) (UniProt P10482); test: Percentage inhibition of Beta-Glucosidase from Caldocellum saccharol. at 1 mM; No inhibition
[6] = target: T2, Glucoamylase 1 (Rhizopus oryzae) (UniProt P07683); test: Percentage inhibition of Alpha-glucosidase from Rhizopus mold (amyloglucosidase) at 1 mM concentration; No inhibition; conditions: Rhizopus arrhizus
T2 sequence (whole entry): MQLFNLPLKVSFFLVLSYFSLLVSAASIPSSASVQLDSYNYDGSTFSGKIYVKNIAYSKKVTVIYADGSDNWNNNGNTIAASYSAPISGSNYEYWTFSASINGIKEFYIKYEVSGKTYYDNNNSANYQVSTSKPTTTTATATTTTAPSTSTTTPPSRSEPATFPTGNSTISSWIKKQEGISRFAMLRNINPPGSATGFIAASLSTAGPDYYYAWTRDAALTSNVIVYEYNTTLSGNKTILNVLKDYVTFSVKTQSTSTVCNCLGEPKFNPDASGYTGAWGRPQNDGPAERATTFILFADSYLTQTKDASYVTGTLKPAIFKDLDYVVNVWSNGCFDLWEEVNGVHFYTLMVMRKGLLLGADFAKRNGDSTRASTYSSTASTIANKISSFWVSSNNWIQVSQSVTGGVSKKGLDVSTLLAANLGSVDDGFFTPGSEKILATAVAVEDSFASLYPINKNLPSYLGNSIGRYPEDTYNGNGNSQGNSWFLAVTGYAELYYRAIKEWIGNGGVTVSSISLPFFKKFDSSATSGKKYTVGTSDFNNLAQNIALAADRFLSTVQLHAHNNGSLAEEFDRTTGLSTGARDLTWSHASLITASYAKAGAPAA

[7] = target: Beta-galactosidase (Escherichia coli K-12) (UniProt P00722); test: Percentage inhibition of Beta-galactosidase from Escherichia coli at 1 mM concentration
[8] = Percentage inhibition of Beta-galactosidase from Aspergillus oryzae at 1 mM; No inhibition
[9] = target: T3, Beta-galactosidase (Bos taurus) (UniProt Q58D55); test: Percentage inhibition of Beta-galactosidase from Bovine liver at 1 mM concentration
T3 sequence (whole entry): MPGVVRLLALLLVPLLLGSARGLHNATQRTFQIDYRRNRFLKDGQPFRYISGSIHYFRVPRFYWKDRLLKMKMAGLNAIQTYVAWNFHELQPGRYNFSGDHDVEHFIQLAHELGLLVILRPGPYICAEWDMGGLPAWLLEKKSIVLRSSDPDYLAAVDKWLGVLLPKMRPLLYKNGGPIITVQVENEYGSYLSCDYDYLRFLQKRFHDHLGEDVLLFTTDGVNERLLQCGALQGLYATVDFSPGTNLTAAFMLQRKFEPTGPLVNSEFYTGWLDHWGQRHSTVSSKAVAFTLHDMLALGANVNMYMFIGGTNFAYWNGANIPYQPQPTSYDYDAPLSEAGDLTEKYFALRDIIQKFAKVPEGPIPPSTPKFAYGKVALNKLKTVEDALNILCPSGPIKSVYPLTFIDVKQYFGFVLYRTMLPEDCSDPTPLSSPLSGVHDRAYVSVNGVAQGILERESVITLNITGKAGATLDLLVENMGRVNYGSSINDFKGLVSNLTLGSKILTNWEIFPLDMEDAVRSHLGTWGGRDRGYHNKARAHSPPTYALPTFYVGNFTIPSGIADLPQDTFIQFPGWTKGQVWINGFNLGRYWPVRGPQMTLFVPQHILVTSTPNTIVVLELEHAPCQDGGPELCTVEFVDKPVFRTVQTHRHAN

[10] = target: T4, Beta-galactosidase (Aspergillus niger) (UniProt P29853); test: Percentage inhibition of Beta-galactosidase from Aspergillus niger at 1 mM concentration; […]
T4 sequence (whole entry): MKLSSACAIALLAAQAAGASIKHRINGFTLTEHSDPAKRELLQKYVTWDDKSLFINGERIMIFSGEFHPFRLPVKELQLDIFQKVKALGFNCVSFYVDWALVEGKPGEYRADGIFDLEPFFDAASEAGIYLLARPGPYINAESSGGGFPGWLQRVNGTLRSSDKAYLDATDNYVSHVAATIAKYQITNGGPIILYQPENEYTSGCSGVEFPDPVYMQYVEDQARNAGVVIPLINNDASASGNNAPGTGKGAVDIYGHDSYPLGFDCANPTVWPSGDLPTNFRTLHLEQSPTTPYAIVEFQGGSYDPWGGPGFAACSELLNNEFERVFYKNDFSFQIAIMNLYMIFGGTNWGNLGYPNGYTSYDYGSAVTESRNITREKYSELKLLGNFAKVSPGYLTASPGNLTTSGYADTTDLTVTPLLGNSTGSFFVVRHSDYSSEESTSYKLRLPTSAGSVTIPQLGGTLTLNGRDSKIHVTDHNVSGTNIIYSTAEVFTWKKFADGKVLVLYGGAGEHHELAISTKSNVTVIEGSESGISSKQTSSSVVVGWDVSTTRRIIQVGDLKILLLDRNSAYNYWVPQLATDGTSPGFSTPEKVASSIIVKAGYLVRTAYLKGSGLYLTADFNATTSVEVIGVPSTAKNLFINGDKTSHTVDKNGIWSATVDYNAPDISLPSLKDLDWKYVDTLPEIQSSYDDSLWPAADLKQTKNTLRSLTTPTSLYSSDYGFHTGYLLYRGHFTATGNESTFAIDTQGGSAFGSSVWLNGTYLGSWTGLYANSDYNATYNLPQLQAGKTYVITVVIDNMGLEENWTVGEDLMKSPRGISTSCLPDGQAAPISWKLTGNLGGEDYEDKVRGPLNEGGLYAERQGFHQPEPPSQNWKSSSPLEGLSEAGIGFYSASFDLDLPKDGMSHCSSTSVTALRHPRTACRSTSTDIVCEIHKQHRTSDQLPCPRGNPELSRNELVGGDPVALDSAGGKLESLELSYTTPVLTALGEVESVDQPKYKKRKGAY

[11] = test system: Saccharomyces cerevisiae; test: Percentage inhibition of Alpha-glucosidase from Baker yeast (isomaltase) at 1 mM
[12] = target: Beta-glucosidase A (Caldicellulosiruptor saccharolyticus) (UniProt P10482); test: Percentage inhibition of Beta-Glucosidase from Caldocellum saccharol. at 1 mM
[13] = target: T3, Beta-galactosidase (Bos taurus); test: Percentage inhibition of Beta-galactosidase from Bovine liver at 1 mM concentration; No inhibition
[14] = target: Beta-galactosidase (Escherichia coli K-12) (UniProt P00722); test: Percentage inhibition of Beta-galactosidase from Escherichia coli at 1 mM concentration; No inhibition
[15] = test system: Alpha-mannosidase (Prunus dulcis); test: Percentage inhibition of Alpha-mannosidase from Almond at 1 mM
[16] = Percentage inhibition of Beta-galactosidase from Jack bean at 1 mM concentration; No inhibition; conditions: Canavalia ensiformis
[17] = Inhibitory activity towards Alpha-glucosidase from Yeast (maltase); set-up: species or system Saccharomyces cerevisiae
[18] = test system: Saccharomyces cerevisiae; test: Percentage inhibition of Alpha-glucosidase from Yeast (maltase) at 1 mM
[19] = target: T5, Beta-glucosidase A (Caldicellulosiruptor saccharolyticus, UniProt P10482); test: Inhibitory activity towards Beta-Glucosidase from Caldocellum saccharol
[20] = target: T5, Beta-glucosidase A; test: Inhibitory activity towards Beta-Glucosidase from Caldocellum saccharol.
[21] = target: T4, Beta-galactosidase (Aspergillus niger); test: Percentage inhibition of Beta-galactosidase from Aspergillus niger at 1 mM concentration
[22] = Inhibitory activity towards Alpha-glucosidase from Baker yeast (isomaltase); set-up: species or system Saccharomyces cerevisiae
[23] = Percentage inhibition of Beta-galactosidase from Aspergillus oryzae at 1 mM

Chain of Beta-galactosidase (Escherichia coli K-12) (P00722 whole entry): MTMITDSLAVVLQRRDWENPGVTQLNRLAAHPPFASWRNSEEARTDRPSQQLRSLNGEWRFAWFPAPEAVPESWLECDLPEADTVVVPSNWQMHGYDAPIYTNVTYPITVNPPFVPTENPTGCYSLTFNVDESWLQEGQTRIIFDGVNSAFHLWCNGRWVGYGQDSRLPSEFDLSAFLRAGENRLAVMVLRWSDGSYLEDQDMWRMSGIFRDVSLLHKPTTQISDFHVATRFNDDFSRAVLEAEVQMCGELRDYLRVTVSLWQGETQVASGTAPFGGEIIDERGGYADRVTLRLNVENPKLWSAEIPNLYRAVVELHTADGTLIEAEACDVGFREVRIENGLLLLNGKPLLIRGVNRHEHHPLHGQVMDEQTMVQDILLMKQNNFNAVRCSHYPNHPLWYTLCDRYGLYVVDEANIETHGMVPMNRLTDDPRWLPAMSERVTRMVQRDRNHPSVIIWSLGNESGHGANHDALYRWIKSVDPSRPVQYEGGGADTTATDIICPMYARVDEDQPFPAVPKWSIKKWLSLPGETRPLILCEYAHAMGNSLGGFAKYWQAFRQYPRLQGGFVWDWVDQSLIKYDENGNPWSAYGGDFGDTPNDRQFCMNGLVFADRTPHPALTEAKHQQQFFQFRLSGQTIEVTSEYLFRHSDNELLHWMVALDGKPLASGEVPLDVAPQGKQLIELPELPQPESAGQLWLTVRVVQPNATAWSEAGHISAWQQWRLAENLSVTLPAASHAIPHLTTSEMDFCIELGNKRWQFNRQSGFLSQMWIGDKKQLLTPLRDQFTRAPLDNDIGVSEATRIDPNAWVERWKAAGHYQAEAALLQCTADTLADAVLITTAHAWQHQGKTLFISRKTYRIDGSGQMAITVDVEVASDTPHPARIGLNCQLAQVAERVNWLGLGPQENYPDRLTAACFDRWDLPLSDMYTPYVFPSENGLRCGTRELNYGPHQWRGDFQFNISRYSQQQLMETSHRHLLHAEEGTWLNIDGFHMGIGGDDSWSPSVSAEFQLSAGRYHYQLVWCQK
Chain of Glucoamylase (Aspergillus niger) (P69328 whole entry): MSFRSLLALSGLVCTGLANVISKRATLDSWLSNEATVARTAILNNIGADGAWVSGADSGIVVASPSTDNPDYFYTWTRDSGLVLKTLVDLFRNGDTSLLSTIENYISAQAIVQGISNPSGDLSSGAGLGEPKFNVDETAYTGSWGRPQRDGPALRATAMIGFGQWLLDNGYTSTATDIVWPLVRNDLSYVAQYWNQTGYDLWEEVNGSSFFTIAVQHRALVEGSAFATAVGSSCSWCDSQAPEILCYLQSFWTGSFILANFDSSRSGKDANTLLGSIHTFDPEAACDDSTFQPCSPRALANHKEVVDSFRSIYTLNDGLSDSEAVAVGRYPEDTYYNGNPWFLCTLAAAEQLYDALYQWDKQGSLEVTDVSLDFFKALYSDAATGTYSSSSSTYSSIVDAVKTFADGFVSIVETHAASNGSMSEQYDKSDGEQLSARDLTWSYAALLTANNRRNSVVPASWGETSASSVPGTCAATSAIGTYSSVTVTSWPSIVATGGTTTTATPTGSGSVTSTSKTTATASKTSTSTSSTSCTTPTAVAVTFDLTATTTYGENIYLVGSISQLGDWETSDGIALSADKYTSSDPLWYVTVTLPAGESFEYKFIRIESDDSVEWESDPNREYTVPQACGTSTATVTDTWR
T5 sequence (P10482 whole entry): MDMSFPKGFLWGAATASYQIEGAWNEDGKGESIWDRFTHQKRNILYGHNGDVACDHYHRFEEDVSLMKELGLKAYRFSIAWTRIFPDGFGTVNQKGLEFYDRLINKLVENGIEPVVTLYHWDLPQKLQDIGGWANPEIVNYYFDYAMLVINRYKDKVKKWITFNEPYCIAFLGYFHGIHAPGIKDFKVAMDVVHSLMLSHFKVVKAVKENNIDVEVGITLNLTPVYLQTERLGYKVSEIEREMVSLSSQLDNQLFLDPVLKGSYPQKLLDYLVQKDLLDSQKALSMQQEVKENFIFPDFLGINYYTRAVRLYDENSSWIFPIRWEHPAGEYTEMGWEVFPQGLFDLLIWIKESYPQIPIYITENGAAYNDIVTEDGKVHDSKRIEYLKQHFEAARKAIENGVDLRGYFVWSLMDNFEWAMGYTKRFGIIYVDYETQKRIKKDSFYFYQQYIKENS
Chain of Beta-glucosidase A (Caldicellulosiruptor saccharolyticus) (P10482 whole entry): as above

Compound	inhibition [1]	inhibition [2]	inhibition [3]	inhibition [4]	inhibition [6]	inhibition [7]	inhibition [8]	inhibition [10]	inhibition [11]	inhibition [12]	inhibition [13]	inhibition [14]	inhibition [15]	inhibition [16]	inhibition [18]	inhibition [21]	IC50 [22]	Ki [22]	also measured
OC1CNC(CNCc2ccccc2)C1O (stereo not given)	inactive	inactive	inactive	inactive	inactive	24%	inactive	inactive	–	–	–	–	–	–	–	–	–	–	inhibition [5]: inactive; inhibition [9]: 26%
OC1CNC(CNCc2cccs2)C1O (stereo not given)	inactive	–	inactive	inactive	inactive	–	inactive	inactive	23%	38%	inactive	inactive	68%	–	–	–	–	–	–
OCC(O)[C@H]1NC[C@H](O)[C@@H]1O (stereo not given in full)	inactive	inactive	inactive	inactive	inactive	–	inactive	inactive	–	40%	–	inactive	–	inactive	–	–	–	–	inhibition [9]: 32%
OC1CNC(CCNc2ccccc2)C1O (stereo not given)	inactive	inactive	inactive	inactive	inactive	–	inactive	inactive	–	–	inactive	inactive	–	inactive	–	–	–	–	inhibition [5]: inactive
CC(=O)N(Cc1ccccc1)CC1NCC(O)C1O (stereo not given)	inactive	–	inactive	inactive	inactive	–	inactive	inactive	33%	43%	inactive	inactive	–	inactive	–	–	–	–	–
OC1CNC(CNCc2ccco2)C1O (stereo not given)	inactive	–	–	inactive	inactive	–	inactive	–	94%	75%	inactive	inactive	29%	–	66%	39%	65 µM	45 µM	IC50 [17]: 280 µM; Ki [19]: 60 µM; IC50 [20]: 250 µM
OC1CNC(CNC2CCCC2)C1O (stereo not given)	inactive	–	–	inactive	inactive	–	inactive	–	92%	29%	inactive	inactive	53%	–	30%	26%	170 µM	71 µM	–
OC1CNC(CNCn2ccnc2)C1O (stereo not given)	inactive	–	–	inactive	inactive	49%	–	–	90%	76%	inactive	–	59%	–	55%	41%	120 µM	40 µM	IC50 [17]: 610 µM; Ki [19]: 120 µM; IC50 [20]: 290 µM; inhibition [23]: 24%
C[C@@H](NCC1NCC(O)C1O)c1ccccc1 (stereo not given in full)	inactive	–	inactive	inactive	inactive	34%	inactive	inactive	34%	49%	inactive	–	48%	–	–	–	–	–	–
